Measurements reported in patent US20070128217A1 (priority 2003, published 2007).

Columns and labels:
[1] = system: control sera (pooled serum of ten healthy LUMC hospital workers; commercial negative donor pooled serum from the Dutch bloodbank); assay type: binding, human; set-up: Binding of Control serum LUMC to linear peptides / Binding of Control serum Blood-bank to linear peptides / Binding of Control serum LUMC to looped peptides / Binding of Control Serum Blood-Bank to Looped peptides / Binding of Control serum LUMC to linear peptides of the protein M of SARS-CoV Urbani / Binding of Control serum Blood-bank to linear peptides of the protein M of SARS-CoV Urbani / Binding of Control serum LUMC to looped peptides of the protein M of SARS-CoV Urbani / Binding of Control Serum Blood-Bank to Looped peptides of the protein M of SARS-CoV Urbani: unit not given here
[2] = system: recombinant human anti-SARS-CoV antibody 03-018; assay type: binding; set-up: Binding of antibody 03-018 to linear peptides of the N protein of SARS-CoV Urbani / Binding of antibody 03-018 to looped/cyclic peptides of the N protein of SARS-CoV Urbani: unit not given here
[3] = system: rabbit serum obtained by immunizing a rabbit with the SARS-CoV strain Frankfurt 1; assay type: binding; set-up: Binding of a rabbit serum to linear peptides / Binding of a rabbit serum to looped peptides / Rabbit serum linear peptides / Rabbit serum looped peptides / Binding of a rabbit serum to linear peptides of protein N of SARS-CoV Urbani (Rabbit serum linear peptides) / Binding of a rabbit serum to looped/cyclic peptides of protein N of SARS-CoV Urbani (Rabbit serum looped peptides): unit not given here
[4] = system: antibodies in sera from SARS patients (sera 1a, 1b, 2, 6, 37, 62, London, SARS-yellow, SARS-green); assay type: binding, human; set-up: Binding of serum 6 to linear peptides of protein X1 of SARS-CoV Urbani / Binding of serum 37 to linear peptides of protein X1 of SARS-CoV Urbani / Binding of serum 6 to looped/cyclic peptide (PEPSCAN-ELISA) / Binding of serum 37 to looped/cyclic peptide (PEPSCAN-ELISA) / Binding of serum 37 to looped/cyclic peptides of protein X1 of SARS-CoV Urbani / Binding of serum 6 to linear peptides of protein X2 / Binding of serum 37 to linear peptides of protein X2 / Binding of serum 37 to looped/cyclic peptides of protein X2 of SARS-CoV Urbani / Binding of serum 6 to linear peptides of protein M of SARS-CoV Urbani / Binding of serum 37 to linear peptides of protein M of SARS-CoV Urbani / Binding of serum 6 to looped/cyclic peptides of protein M of SARS-CoV Urbani / Binding of serum 37 to looped/cyclic peptides of protein M of SARS-CoV Urbani / Binding of serum 6 to linear peptides of protein X3 of SARS-CoV Urbani / Binding of serum 37 to linear peptides of protein X3 of SARS-CoV Urbani / Binding of serum 37 to looped/cyclic peptides of protein X3 of SARS-CoV Urbani / Binding of serum 6 to linear peptides of protein X4 of SARS-CoV Urbani / Binding of serum 37 to linear peptides of protein X4 of SARS-CoV Urbani / Binding of serum 37 to looped/cyclic peptides of protein X4 of SARS-CoV Urbani / Binding of serum 6 to linear peptides of protein X5 of SARS-CoV Urbani / Binding of serum 37 to linear peptides of protein X5 of SARS-CoV Urbani / Binding of serum 37 to looped/cyclic peptides of protein X5 of SARS-CoV Urbani / Binding of serum 6 to linear peptides of protein N of SARS-CoV Urbani / Binding of serum 37 to linear peptides of protein N of SARS-CoV Urbani / Binding of serum 6 to linear peptide (PEPSCAN-ELISA) / Binding of serum 1a to looped/cyclic peptides of protein N of SARS-CoV Urbani / Binding of serum 1b to looped/cyclic peptides of protein N of SARS-CoV Urbani / Binding of serum 2 to looped/cyclic peptides of protein N of SARS-CoV Urbani / Binding of serum 6 to looped/cyclic peptides of protein N of SARS-CoV Urbani / Binding of serum 37 to looped/cyclic peptides of protein N of SARS-CoV Urbani / Binding of serum 62 to looped/cyclic peptides of protein N of SARS-CoV Urbani / Binding of serum London to looped/cyclic peptides of protein N of SARS-CoV Urbani / Binding of serum SARS-green to looped/cyclic peptides of protein N of SARS-CoV Urbani: unit not given here

Sequence | Binding of antibody 03-018 to linear peptides of the N protein of SARS-CoV Urbani [2] | Binding of antibody 03-018 to looped/cyclic peptides of the N protein of SARS-CoV Urbani [2] | Binding of a rabbit serum to linear peptides of protein N of SARS-CoV Urbani (Rabbit serum linear peptides) [3] | Binding of a rabbit serum to looped/cyclic peptides of protein N of SARS-CoV Urbani (Rabbit serum looped peptides) [3] | Binding of serum 1a to looped/cyclic peptides of protein N of SARS-CoV Urbani [4] | Binding of serum 1b to looped/cyclic peptides of protein N of SARS-CoV Urbani [4] | Binding of serum 2 to looped/cyclic peptides of protein N of SARS-CoV Urbani [4] | Binding of serum 6 to looped/cyclic peptides of protein N of SARS-CoV Urbani [4] | Binding of serum 37 to looped/cyclic peptides of protein N of SARS-CoV Urbani [4] | Binding of serum 62 to looped/cyclic peptides of protein N of SARS-CoV Urbani [4] | Binding of serum London to looped/cyclic peptides of protein N of SARS-CoV Urbani [4] | Binding of serum SARS-green to looped/cyclic peptides of protein N of SARS-CoV Urbani [4] | Binding of serum SARS-yellow to looped/cyclic peptides of protein N of SARS-CoV Urbani [4] | other results
KKDKKKKTDEAQPLP | 0.1 | 0.2 | 0.1 | 0.2 | 0.2 | 0.1 | 2.3 | 0.2 | 0.3 | 0.3 | 0.3 | 0.1 | 0.1 | Control Serum Blood-Bank Looped peptides [1]: 0.5; Control serum Blood-bank linear peptides [1]: 0.7; Control serum LUMC linear peptides [1]: 0.6; Control serum LUMC looped peptides [1]: 0.4; Binding of serum 1a to linear peptides of protein N of SARS-CoV Urbani [4]: 0.3; Binding of serum 1b to linear peptides of protein N of SARS-CoV Urbani [4]: 0.2; Binding of serum 2 to linear peptides of protein N of SARS-CoV Urbani [4]: 1.9; Binding of serum 6 to linear peptides of protein N of SARS-CoV Urbani [4]: 0.2; Binding of serum 37 to linear peptides of protein N of SARS-CoV Urbani [4]: 0.7; Binding of serum 62 to linear peptides of protein N of SARS-CoV Urbani [4]: 0.7; Binding of serum London to linear peptides of protein N of SARS-CoV Urbani [4]: 0.6; Binding of serum SARS-green to linear peptides of protein N of SARS-CoV Urbani [4]: 0.4; Binding of serum SARS-yellow to linear peptides of protein N of SARS-CoV Urbani [4]: 0.6
KKPRQKRTATKQYNV | 0.1 | 0.2 | 0.3 | 0.0 | 0.3 | 0.1 | 0.4 | 0.3 | 0.6 | 0.5 | 0.5 | 0.1 | 0.4 | Binding of Control Serum Blood-Bank to Looped peptides [1]: 0.4; Binding of Control serum Blood-bank to linear peptides [1]: 0.6; Binding of Control serum LUMC to linear peptides [1]: 0.7; Binding of Control serum LUMC to looped peptides [1]: 0.5; Binding of serum 1a to linear peptide (PEPSCAN-ELISA) [4]: 0.2; Binding of serum 1b to linear peptide (PEPSCAN-ELISA) [4]: 0.1; Binding of serum 2 to linear peptide (PEPSCAN-ELISA) [4]: 0.3; Binding of serum 6 to linear peptide (PEPSCAN-ELISA) [4]: 0.2; Binding of serum 37 to linear peptide (PEPSCAN-ELISA) [4]: 0.8; Binding of serum 62 to linear peptide (PEPSCAN-ELISA) [4]: 0.8; Binding of serum London to linear peptide (PEPSCAN-ELISA) [4]: 0.7; Binding of serum SARS-green to linear peptide (PEPSCAN-ELISA) [4]: 0.1; Binding of serum SARS-yellow to linear peptide (PEPSCAN-ELISA) [4]: 0.6
